17 molecules from ChEMBL document CHEMBL5154776, “Discovery of Potent and Orally Bioavailable Platelet-Derived Growth Factor Receptor (PDGFR) Inhibitors for the Treatment of Osteosarcoma” (J Med Chem, 2022) can be followed below.

Each structure is given as a SMILES string.

Data set [1] has as its target T1, Platelet-derived growth factor receptor beta (Homo sapiens, UniProt P09619). Put plainly: Inhibition of PDGFRbeta (unknown origin) at 100 nM by caliper mobility shift assay relative to control.
Data set [2] in a line: Toxicity in BALB/c nude mouse xenograted with human MNNG/HOS cells assessed as kidney lesion at 30 mg/kg/day, po for 14 days by hematoxylin and eosin staining method. Format: organism-based, HOS-TE85. The following applies: in vivo, 336 h, time 14 day.
In data set [3] the target is T1, Platelet-derived growth factor receptor beta. As to the kind of experiment: Inhibition of PDGFRbeta (unknown origin) by caliper mobility shift assay.
The next data set relates to HOS-TE85. Put plainly: Antiproliferative activity against human MNNG/HOS cells assessed as reduction in cell viability incubated for 48 hrs by MTT assay. Conditions: HOS-TE85, 48 h.
In the next data set the test system is U2OS. As to the kind of experiment: Antiproliferative activity against human U2OS cells assessed as reduction in cell viability incubated for 48 hrs by MTT assay.
The target in data set [4] is T2, Platelet-derived growth factor receptor alpha (Homo sapiens, UniProt P16234). As to the kind of experiment: Inhibition of PDGFRalpha (unknown origin) by caliper mobility shift assay.
T2 sequence (P16234 whole entry): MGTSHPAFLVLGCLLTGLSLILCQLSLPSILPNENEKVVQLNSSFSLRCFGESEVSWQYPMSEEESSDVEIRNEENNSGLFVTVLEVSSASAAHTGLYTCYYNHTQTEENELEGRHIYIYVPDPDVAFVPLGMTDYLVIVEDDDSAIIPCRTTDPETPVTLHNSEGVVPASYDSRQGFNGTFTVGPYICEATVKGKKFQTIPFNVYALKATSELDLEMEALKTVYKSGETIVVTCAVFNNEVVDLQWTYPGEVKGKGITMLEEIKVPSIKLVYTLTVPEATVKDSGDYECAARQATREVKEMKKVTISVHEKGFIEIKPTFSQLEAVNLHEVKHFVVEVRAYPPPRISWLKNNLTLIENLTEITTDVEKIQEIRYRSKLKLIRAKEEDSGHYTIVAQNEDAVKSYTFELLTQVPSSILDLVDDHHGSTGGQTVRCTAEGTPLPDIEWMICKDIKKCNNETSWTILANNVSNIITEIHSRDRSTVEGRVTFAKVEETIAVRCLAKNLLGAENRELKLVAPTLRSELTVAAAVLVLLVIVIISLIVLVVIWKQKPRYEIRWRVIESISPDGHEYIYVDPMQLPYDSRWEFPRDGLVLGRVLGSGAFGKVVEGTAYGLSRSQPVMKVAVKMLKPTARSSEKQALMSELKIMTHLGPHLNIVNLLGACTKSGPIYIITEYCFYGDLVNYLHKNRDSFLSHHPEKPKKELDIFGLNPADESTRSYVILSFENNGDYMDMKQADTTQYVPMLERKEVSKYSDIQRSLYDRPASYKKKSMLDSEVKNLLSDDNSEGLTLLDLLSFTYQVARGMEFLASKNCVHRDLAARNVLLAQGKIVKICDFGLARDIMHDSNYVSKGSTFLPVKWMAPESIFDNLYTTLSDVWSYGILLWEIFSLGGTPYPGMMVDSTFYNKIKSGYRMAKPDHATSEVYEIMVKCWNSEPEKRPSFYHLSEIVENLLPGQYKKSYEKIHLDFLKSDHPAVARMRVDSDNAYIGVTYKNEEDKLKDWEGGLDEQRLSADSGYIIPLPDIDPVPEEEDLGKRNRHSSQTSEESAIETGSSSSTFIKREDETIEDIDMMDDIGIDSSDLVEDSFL
The subject of a further data set is CYP2C9. As to the kind of experiment: Inhibition of CYP2C9 in rat liver microsomes at 100 uM using diclofenac as substrate preincubated for 5 min followed by NADPH addition and measured after 40 mins by UHPLC-MS/MS analysis. Format: ADME, Microsome. The following applies: probe diclofenac, time 45 min.
The test system of a further data set is CYP2C19. Put plainly: Inhibition of CYP2C19 in rat liver microsomes at 100 uM using voriconazole as substrate preincubated for 5 min followed by NADPH addition and measured after 40 mins by UHPLC-MS/MS analysis. Format: ADME, Microsome. The following applies: probe voriconazole, time 45 min.
The subject of another data set is SAOS-2. Put plainly: Antiproliferative activity against human SAOS-2 cells assessed as reduction in cell viability incubated for 48 hrs by MTT assay. Conditions: SAOS-2, 48 h.
Another data set has as its system MG-63. Put plainly: Antiproliferative activity against human MG-63 cells assessed as reduction in cell viability incubated for 48 hrs by MTT assay. Conditions: MG-63, 48 h.
Data set [5] deals with T2, Platelet-derived growth factor receptor alpha. Conditions: dose 100.0 nM.
Description: Inhibition of PDGFRalpha (unknown origin) at 100 nM by caliper mobility shift assay relative to control

T1 sequence (P09619 whole entry): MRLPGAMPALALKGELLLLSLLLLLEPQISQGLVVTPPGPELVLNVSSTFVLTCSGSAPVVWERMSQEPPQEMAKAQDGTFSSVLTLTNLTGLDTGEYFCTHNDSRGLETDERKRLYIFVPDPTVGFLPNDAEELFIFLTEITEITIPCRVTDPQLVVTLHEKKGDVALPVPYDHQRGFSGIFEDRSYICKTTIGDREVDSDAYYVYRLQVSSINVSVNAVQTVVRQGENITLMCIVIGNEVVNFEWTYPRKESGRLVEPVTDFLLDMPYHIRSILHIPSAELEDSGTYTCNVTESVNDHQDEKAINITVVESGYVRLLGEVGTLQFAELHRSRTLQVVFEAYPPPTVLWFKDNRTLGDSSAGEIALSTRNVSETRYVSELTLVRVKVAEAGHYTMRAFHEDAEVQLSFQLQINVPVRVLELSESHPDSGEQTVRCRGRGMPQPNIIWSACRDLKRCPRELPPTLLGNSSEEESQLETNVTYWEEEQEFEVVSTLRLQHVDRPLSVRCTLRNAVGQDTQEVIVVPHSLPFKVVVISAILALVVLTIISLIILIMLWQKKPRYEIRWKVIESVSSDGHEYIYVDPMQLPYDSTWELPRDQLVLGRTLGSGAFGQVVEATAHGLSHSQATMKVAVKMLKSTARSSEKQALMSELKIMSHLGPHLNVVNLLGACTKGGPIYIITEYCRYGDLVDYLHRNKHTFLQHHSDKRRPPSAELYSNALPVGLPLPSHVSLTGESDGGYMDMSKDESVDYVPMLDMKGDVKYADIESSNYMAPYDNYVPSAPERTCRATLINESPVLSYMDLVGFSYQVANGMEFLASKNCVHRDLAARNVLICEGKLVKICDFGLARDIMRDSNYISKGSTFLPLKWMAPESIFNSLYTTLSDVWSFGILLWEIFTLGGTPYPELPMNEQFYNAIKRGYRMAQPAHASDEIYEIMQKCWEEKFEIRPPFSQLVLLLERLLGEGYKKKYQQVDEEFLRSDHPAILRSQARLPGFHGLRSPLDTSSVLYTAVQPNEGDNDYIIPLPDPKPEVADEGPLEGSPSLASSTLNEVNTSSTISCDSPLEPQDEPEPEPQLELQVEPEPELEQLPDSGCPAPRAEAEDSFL

Consider `Cc1cc(Nc2ccc3cn[nH]c3c2)nc(Nc2ccc(N3CCN(C)CC3)cc2)n1`, for which the inhibition in data set [1] turned out to be 7.2%.

As to `Cc1cnc(Nc2ccc(N3CCN(C)CC3)cc2)nc1Nc1ccc2c(c1)CCC2`, the inhibition in data set [1] is 88.9%. For the molecule `Cc1ccc(NC(=O)c2ccc(CN3CCN(C)CC3)cc2)cc1Nc1nccc(-c2cccnc2)n1` [IMATINIB], the Activity result in [2] is given as “Toxic”.

Consider `CN1CCN(c2ccc(Nc3ncc(F)c(Nc4ccc5cn[nH]c5c4)n3)cc2)CC1`, for which the inhibition in data set [1] came to 94.4%. For the molecule `CN1CCN(c2ccc(Nc3ncc(C(F)(F)F)c(Nc4ccc5cn[nH]c5c4)n3)cc2)CC1`, the inhibition in data set [1] stood at 81%.

As to `Cc1cnc(Nc2ccc(N3CCNCC3)cc2)nc1Nc1ccc2cn[nH]c2c1`, in data set [3], the IC50 came to 110 nM. On to `Cc1cnc(Nc2ccc(N3CCN(C)CC3)cc2)nc1Nc1cccc2[nH]ccc12`, for which the inhibition in data set [1] was 90.3%. Still for that read-out and setting: the result for `Cc1cnc(Nc2ccc(N3CCN(C)CC3)cc2)nc1Nc1ccc2c(C)n[nH]c2c1` reads 98%. `Cc1cnc(Nc2ccc(N3CCN(C)CC3)cc2)nc1Nc1ccc2nn(CCNC(=O)OC(C)(C)C)cc2c1`: the inhibition in data set [1] amounted to 71.1%. As for `CN1CCN(c2ccc(Nc3ncc(Cl)c(Nc4ccc5cn[nH]c5c4)n3)cc2)CC1`, the inhibition in data set [1] is 95.8%.

For the molecule `COc1cc(N2CCN(C)CC2)ccc1Nc1ncc(C)c(Nc2ccc3cn[nH]c3c2)n1`, the half-maximal inhibitory concentration (IC50) in data set [3] came out at 44.1 nM. Still for that read-out and setting: the result for `COc1cc(N2CCC(N3CCN(C)CC3)CC2)ccc1Nc1ncc(C)c(Nc2ccc3cn[nH]c3c2)n1` reads 55.6 nM. Take `Cc1cnc(Nc2ccc(N3CCN(C)CC3)cc2)nc1Nc1ccc2c(c1)CCCC2`: the inhibition in data set [1] worked out at 90.4%. With `CCN1CCN(c2ccc(Nc3ncc(C)c(Nc4ccc5cn[nH]c5c4)n3)cc2OC)CC1`, the 50% inhibitory concentration (IC50) with HOS-TE85 is 1030 nM; in the data set with U2OS it was 420 nM; in data set [3], 0.9 nM; in data set [4], 2.4 nM; in the data set on SAOS-2, 370 nM; in the data set on MG-63 it was 440 nM. Besides, the inhibition at 40 min, 100 µM with CYP2C9 and with CYP2C19 was 45.6% each time. In the case of `Cc1cnc(Nc2ccc(N3CCN(C)CC3)cc2)nc1Nc1ccc2[nH]ccc2c1`, the values for the inhibition in data set [1] and in data set [5] were 78.6% and 57.3%, respectively.

Turning to `Cc1cnc(Nc2ccc(N3CCN(C)CC3)cc2)nc1Nc1ccc2cn[nH]c2c1`, the inhibition in [1] worked out at 99.6%. For `CCOC(=O)c1cnc(Nc2ccc(N3CCN(C)CC3)cc2)nc1Nc1ccc2cn[nH]c2c1`, in data set [1], the inhibition worked out at 30.7%.
